This series relates to CCRIS mutagenicity, Ames/micronucleus/aberration tests. Nature of the series: CCRIS mutagenicity studies.
Setting [1] is: Test System: AMES SALMONELLA TYPHIMURIUM, Strain/Indicator: TA100, Metabolic Activation: NONE, Method: PREINCUBATION
Where [2] appears, read: Test System: AMES SALMONELLA TYPHIMURIUM, Strain/Indicator: TA98, Metabolic Activation: NONE, Method: STANDARD PLATE.
Setting [3] is: Test System: AMES SALMONELLA TYPHIMURIUM, Strain/Indicator: TA100, Metabolic Activation: NONE, Method: STANDARD PLATE.

Structures are written as SMILES. The source made the active and inactive calls. No rule for the calls is given here.

For `CN(N=O)C(=O)NC1O[C@H](CO)[C@@H](O)[C@H](O)[C@H]1O` (stereo partly specified), the mutagenic call (Test System: CHINESE HAMSTER V-79, Strain/Indicator: V-79/8-AZAGUANINE, Metabolic Activation: NONE, Method: STANDARD PLATE) was “active; positive”.

On to `C[Si](C)(C)N=[N+]=[N-]`, for which the mutagenic call under setting [1] was “active; positive” and the mutagenic call (Test System: AMES SALMONELLA TYPHIMURIUM, Strain/Indicator: TA100, Metabolic Activation: RAT, LIVER, S-9, PCB, Method: PREINCUBATION) is “active; positive”.

Consider `CCOC(=O)CC1OCCc2c1[nH]c1c(CC)c(O)ccc21` (stereo unspecified), for which the mutagenic call runs as follows: under setting [2], “inactive; negative”; (Test System: AMES SALMONELLA TYPHIMURIUM, Strain/Indicator: TA98, Metabolic Activation: RAT, LIVER, S-9 (10 OR 50 µL/PLATE), Method: STANDARD PLATE) “inactive; negative”; under setting [3], “inactive; negative”; (Test System: AMES SALMONELLA TYPHIMURIUM, Strain/Indicator: TA100, Metabolic Activation: RAT, LIVER, S-9 (10 OR 50 µL/PLATE), Method: STANDARD PLATE) “inactive; negative”; (Test System: AMES SALMONELLA TYPHIMURIUM, Strain/Indicator: TA1535, Metabolic Activation: NONE, Method: STANDARD PLATE) “active; positive”; (Test System: AMES SALMONELLA TYPHIMURIUM, Strain/Indicator: TA1535, Metabolic Activation: RAT, LIVER, S-9 (10 OR 50 µL/PLATE), Method: STANDARD PLATE) “active; positive”. The mutagenic call is “inactive; negative” (Test System: AMES SALMONELLA TYPHIMURIUM, Strain/Indicator: TA1537, Metabolic Activation: NONE, Method: STANDARD PLATE); “inactive; negative” (Test System: AMES SALMONELLA TYPHIMURIUM, Strain/Indicator: TA1537, Metabolic Activation: RAT, LIVER, S-9 (10 OR 50 µL/PLATE), Method: STANDARD PLATE); “inactive; negative” (Test System: E. COLI, Strain/Indicator: WP2 UVRA, Metabolic Activation: NONE, Method: STANDARD PLATE); “inactive; negative” (Test System: E. COLI, Strain/Indicator: WP2 UVRA, Metabolic Activation: RAT, LIVER, S-9 (10 OR 50 µL/PLATE), Method: STANDARD PLATE).

As to `COCC1CO1` (stereo unspecified), the mutagenic call is “active; positive” (Test System: AMES SALMONELLA TYPHIMURIUM, Strain/Indicator: TA100, Metabolic Activation: HAMSTER, LIVER, S-9, AROCLOR 1254 (10%), Method: PREINCUBATION); “active; positive” under setting [1]; “active; positive” (Test System: AMES SALMONELLA TYPHIMURIUM, Strain/Indicator: TA100, Metabolic Activation: RAT, LIVER, S-9, AROCLOR 1254 (10%), Method: PREINCUBATION); “active; positive” (Test System: AMES SALMONELLA TYPHIMURIUM, Strain/Indicator: TA1535, Metabolic Activation: HAMSTER, LIVER, S-9, AROCLOR 1254 (10%), Method: PREINCUBATION); “active; positive” (Test System: AMES SALMONELLA TYPHIMURIUM, Strain/Indicator: TA1535, Metabolic Activation: NONE, Method: PREINCUBATION); “active; positive” (Test System: AMES SALMONELLA TYPHIMURIUM, Strain/Indicator: TA1535, Metabolic Activation: RAT, LIVER, S-9, AROCLOR 1254 (10%), Method: PREINCUBATION).

As for `O[As](O)O`, the mutagenic call (End Point: IN VIVO MICRONUCLEUS, Test System: BONE MARROW POLYCHROMATIC ERYTHROCYTES, Species: MOUSE, Strain/Sex: C57BL/6/MALE, Route: IP INJECTION) was “active; positive”.

Turning to `CNC(=O)ON(C(C)=O)C(=O)NC`, the mutagenic call (Test System: AMES SALMONELLA TYPHIMURIUM, Strain/Indicator: TA98, Metabolic Activation: RAT, LIVER, S-9, Method: STANDARD PLATE) was “active; positive” and the mutagenic call under setting [3] was “inactive; negative”.

In the case of `COC[C@@H]1C=C2c3cccc4c3c(cn4C)C[C@H]2N(C)C1`, under “Test System: AMES SALMONELLA TYPHIMURIUM, Strain/Indicator: TA100, Metabolic Activation: RAT, LIVER, S-9, AROCLOR 1254, Method: STANDARD PLATE”, the mutagenic call is “active; positive”.

For `OOC1CCCc2ccccc21` (stereo unspecified), the mutagenic call was “inactive; negative” under setting [2]; “active; positive” under setting [3]; “inactive; negative” (Test System: AMES SALMONELLA TYPHIMURIUM, Strain/Indicator: TA102, Metabolic Activation: NONE, Method: STANDARD PLATE).

The record behind these values is PubChem BioAssay AID1259407 (Chemical Carcinogenesis Research Information System (CCRIS), 2018).
